Laboratory results taken from patent US20160130224A1, “Novel Pyrrole Derivatives” (priority 2013, published 2016).

Key:
pneumolysin [1] = target: T1, pneumolysin (Streptococcus pneumoniae serotype 2, UniProt Q04IN8); experiment: Inhibition of the haemolytic activity of pneumolysin (sheep erythrocytes); format: cell-based; conditions: pneumolysin at LD100, sheep erythrocytes, 37° C., read-out: IC50
Protocol: The basis of this assay is that when pneumolysin is added to red blood cells, it induces their lysis and leads to the release of haemoglobin. In the presence of an inhibitory compound, pneumolysin-induced lysis is abolished, the red blood cells pellet at the bottom of the microtitre plate well and the supernatant is clear. However, if the compound is not inhibitory, the red blood cells are lysed and haemoglobin is released into the supernatant.
Test compound solutions (typically at 5 mM in DMSO) were diluted 1:1 in 100% DMSO. The compounds were then two-fold serially diluted in 100% DMSO across 11 wells of 96-well round-bottomed microtitre plate. PBS was then added to all the wells to achieve a 1:10 dilution of the compound in PBS. Pneumolysin was then added at a concentration equal to its LD100. Plates were then incubated at 37° C. for 30-40 min. After the incubation period, an equal volume of 4% (v/v) sheep erythrocyte suspension was added to each well and the plates incubated again at 37° C., for at least 30 min. Controls with only erythrocytes in PBS (control for no lysis) or erythrocytes plus pneumolysin (control for lysis) were prepared following the same procedure. Following the incubation with the erythrocytes, the Absorbance at 595 nm of each well was measured and the data used to determine the IC50 for each test compound. The IC50 values were determined using non-linear regression curve fitting. For that, the Log of the concentrations of the test compound was plotted against the percentage inhibition, estimated from the A595 values, followed by fitting a Hill Slope to the data.

pneumolysin [2] = target: T1, pneumolysin; experiment: Inhibition of pneumolysin-induced lactate dehydrogenase (LDH) release from A549 human lung epithelial cells; format: cell-based
Protocol: Pneumolysin induces the release of lactate dehydrogenase (LDH) from human monocytes and lung epithelial cells: a phenomenon that is indicative of plasma membrane damage or rupture [Infect. Immun. (2002) 70 1017-1022].
Human lung epithelial cells (A549) were seeded in flat-bottomed 96-well tissue culture plates and grown in RPMI 1640 medium supplemented with Glutamine, at 37° C., 5% CO2, for 24 h.
Before use, the cells were washed with PBS. Test compound dilutions were incubated with pneumolysin as described in Section A, then transferred to wells containing the human lung epithelial cells and the plates were incubated at 37° C., 5% CO2, for 30 min. The following controls were included on the plate (1) Negative controls, called low control (PBS only) to measure the natural release of LDH from the cells in culture, (2) positive controls (1% (v/v) Triton-X in PBS) to measure the maximum release of LDH from the cells (3) Pneumolysin solution only to measure pneumolysin-induced LDH release, (4) Test compound solution to assess the toxicity of the compound alone. […] Absorbance at 490 nm and 655 nm was then measured. The percentage of LDH release induced by pneumolysin in the presence and absence of test compounds was plotted against the Log of the concentration of the compound and the IC50 was determined, as described above in the inhibition of haemolysis assay, Section A.

pneumolysin [3] = target: T1, pneumolysin; experiment: Ex vivo meningitis assay: effect of pneumolysin on ciliary function of cultured ependymal cells; format: cell-based; conditions: rat ependymal cells; compound 1.56 μM; recorded over 30 min; FIG. 2
Description: The ependymal ciliated cells line the cerebral ventricles of the brain and the central canal of the spinal cord and are covered with cilia responsible for the circulation of the cerebrospinal fluid (CSF) around the central nervous system. This layer acts as a selective brain barrier to and from the cerebrospinal fluid and plays a role in controlling the CSF volume. To study if the inhibitors prevent the damage caused by pneumolysin on the ependymal layer, a rat ex vivo model of meningitis was used. This model is based on culturing and differentiating ciliated ependymal cells from neonate rat brains, which recreate the in vivo situation, where cells lining the brain ventricles, are exposed to S. pneumoniae and its toxic products.
Ependymal cell cultures were prepared by the method previously described [Microb. Pathog. (1999) 27 303-309]. Tissue culture trays were coated with bovine fibronectin and incubated at 37° C. in 5% (v/v) CO2 for 2 h before use. […]
After approximately two weeks, the cells were fully ciliated and ready for experiments. […] Beating cilia were recorded before and after exposure over 30 min, with a digital high-speed video camera at a rate of 500 frames/s. The recorded video sequences were played back at reduced frame rates and the ciliary beat frequency (CBF) was determined by the following equation: […]

[4] = Solubility testing in PBS or 0.9% saline; format: physicochemical; conditions: result in words
Protocol: Solubility studies were performed by charging a vial with 5-10 mg of compound followed by the 40 addition of PBS solution or 0.9% saline to achieve a concentration of 100 mg/ml. If solubility was not observed the solution was diluted to concentrations of 50 mg/ml, 25 mg/ml and 4 mg/ml consecutively until complete solubility was observed.

[5] = Chemical stability assessment in PBS at 37.5° C. (HPLC); format: physicochemical; conditions: buffer, pH 6.2, read-out: Chemical stability at pH 6.2-7.2 (t1/2) (converted)
Protocol: (§1) Stability studies were carried out by dissolving 1-2 mg of compound in DMSO (1 mL) followed by addition of 0.4 mL of the resulting solution to stirred PBS solution (9.6 mL) at 37.5° C. A sample (ca. 0.5 mL) was immediately taken for HPLC analysis. Further samples were then taken for analysis at various timepoints thereafter. Half-lives were determined from the decrease in concentration of compound with respect to time.
as §1, with “performed” for “carried out”, “ml)” for “mL)”, “ml” for “mL”, “PBS” for “PBS solution”, “(˜0.5 ml)” for “(ca. 0.5 mL)”, “time-points” for “timepoints”

T1 sequence (Q04IN8 whole entry): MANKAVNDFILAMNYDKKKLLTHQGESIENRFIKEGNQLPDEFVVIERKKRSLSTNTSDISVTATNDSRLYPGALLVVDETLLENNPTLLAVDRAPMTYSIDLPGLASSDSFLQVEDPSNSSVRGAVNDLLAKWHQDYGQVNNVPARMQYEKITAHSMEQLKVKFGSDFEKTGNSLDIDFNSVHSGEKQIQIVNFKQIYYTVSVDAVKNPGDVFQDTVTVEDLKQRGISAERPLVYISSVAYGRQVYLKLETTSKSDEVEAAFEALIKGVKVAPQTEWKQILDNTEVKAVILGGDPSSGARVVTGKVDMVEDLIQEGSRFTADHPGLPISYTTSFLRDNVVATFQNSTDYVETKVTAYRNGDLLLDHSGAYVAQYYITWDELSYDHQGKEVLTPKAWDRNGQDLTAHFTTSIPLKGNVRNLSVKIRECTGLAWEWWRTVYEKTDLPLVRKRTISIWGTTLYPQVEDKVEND

## COc1ccc(-n2c(C(=O)N(C)C)c(O)c(O)c2C(=O)N(C)C)cc1 [UL1-005, 3,4-Dihydroxy-1-(4-methoxyphenyl)-N^2,N^2,N^5,N^5-tetramethyl-1H-pyrrole-2,5-dicarboxamide]
Pneumolysin [1]; Table 1
  IC50: 0.2 µM
Pneumolysin [1]; Table 2
  IC50: 0.2 µM
Pneumolysin [2]
  IC50: < 0.49 µM
Pneumolysin [3]
  Ciliary beating frequency (CBF) in the presence of pneumolysin: No significant loss of the CBF
[4]
  Solubility in 0.9% (w/v) saline, pH 6.5 or PBS pH 7.2: Not soluble
[5]
  half-life: < 30 min
